Test results published in patent US20230138851A1, “NOVEL ALKYNE DERIVATIVES” (CARNA BIOSCIENCES, INC., priority 2020, published 2023).

Legend:
Assay type in all cases: biochemical
DYRK3 = target: T1, DYRK3 (Homo sapiens, UniProt O43781); test: Inhibition test on activity of DYRK family, mobility shift assay (MSA), DYRK3; conditions: ATP 20 μM, FITC-labeled DYRKtide peptide substrate, room temperature 1 hour; for IC50: read-out: Inhibitory Activity 3 (IC50 against DYRK3)
T1 construct: purchased Carna Biosciences, Inc. 04-133
T1 sequence (O43781 1-588): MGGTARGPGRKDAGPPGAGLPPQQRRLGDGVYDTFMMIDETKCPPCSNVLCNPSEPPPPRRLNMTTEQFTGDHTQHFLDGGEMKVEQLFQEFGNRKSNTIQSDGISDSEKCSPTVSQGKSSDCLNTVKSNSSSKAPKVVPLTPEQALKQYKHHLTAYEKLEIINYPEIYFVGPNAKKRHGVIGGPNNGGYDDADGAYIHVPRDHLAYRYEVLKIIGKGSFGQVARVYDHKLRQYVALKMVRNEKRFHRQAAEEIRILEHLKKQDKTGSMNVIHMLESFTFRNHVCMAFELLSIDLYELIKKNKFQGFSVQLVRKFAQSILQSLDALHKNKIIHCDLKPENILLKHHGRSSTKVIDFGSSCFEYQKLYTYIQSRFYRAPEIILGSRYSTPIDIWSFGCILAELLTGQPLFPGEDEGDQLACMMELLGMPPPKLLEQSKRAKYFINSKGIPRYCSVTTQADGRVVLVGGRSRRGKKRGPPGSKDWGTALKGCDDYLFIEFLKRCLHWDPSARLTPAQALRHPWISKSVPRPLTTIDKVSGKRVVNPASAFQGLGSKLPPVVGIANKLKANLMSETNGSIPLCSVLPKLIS
In short: (§1)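 FITC-DYRKtide phosphorylation in 20 mM HEPES pH 7.5 with MgCl2; ATP in the substrate mix was 100 μM (DYRK1A), 200 μM (DYRK1B), 40 μM (DYRK2) or 20 μM (DYRK3). Reactions ran 1 h at room temperature; inhibition from P/(P+S) versus blank and DMSO control, IC50 by regression on log concentration.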

DYRK1A = target: T2, DYRK1A (Homo sapiens, UniProt Q13627); test: Inhibition test on activity of DYRK family, mobility shift assay (MSA), DYRK1A; conditions: ATP 100 μM, FITC-labeled DYRKtide peptide substrate, room temperature 1 hour; for IC50: read-out: Inhibitory Activity 1a (IC50 against DYRK1A)
T2 construct: purchased Carna Biosciences, Inc. 04-130
In short: as §1

DYRK2 = target: T3, DYRK2 (Homo sapiens, UniProt Q92630); test: Inhibition test on activity of DYRK family, mobility shift assay (MSA), DYRK2; conditions: ATP 40 μM, FITC-labeled DYRKtide peptide substrate, room temperature 1 hour; for IC50: read-out: Inhibitory Activity 2 (IC50 against DYRK2)
T3 construct: purchased Carna Biosciences, Inc. 04-132
T3 sequence (Q92630 1-601): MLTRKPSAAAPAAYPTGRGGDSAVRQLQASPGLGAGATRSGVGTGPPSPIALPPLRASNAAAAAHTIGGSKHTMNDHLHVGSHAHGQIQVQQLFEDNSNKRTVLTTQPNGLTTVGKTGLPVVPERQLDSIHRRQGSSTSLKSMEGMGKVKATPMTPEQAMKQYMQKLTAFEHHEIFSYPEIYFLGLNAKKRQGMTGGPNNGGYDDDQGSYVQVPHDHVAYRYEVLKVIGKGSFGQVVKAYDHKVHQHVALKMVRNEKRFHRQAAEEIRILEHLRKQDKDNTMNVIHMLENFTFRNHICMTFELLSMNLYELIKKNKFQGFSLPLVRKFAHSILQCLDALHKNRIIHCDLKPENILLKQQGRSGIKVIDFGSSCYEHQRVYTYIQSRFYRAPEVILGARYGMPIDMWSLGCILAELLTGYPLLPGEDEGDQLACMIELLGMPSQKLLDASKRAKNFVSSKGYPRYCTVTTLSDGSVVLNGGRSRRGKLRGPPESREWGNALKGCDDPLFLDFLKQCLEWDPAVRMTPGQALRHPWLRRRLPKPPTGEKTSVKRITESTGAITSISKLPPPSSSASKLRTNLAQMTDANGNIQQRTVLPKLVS
In short: as §1

Row | SMILES | IC50 (DYRK3) [nM] | Inhibitory Activity 1a (IC50 against DYRK1A) (DYRK1A) | IC50 (DYRK2) [nM] | IC50 (DYRK1A) [nM] | Inhibitory Activity 2 (IC50 against DYRK2) (DYRK2) | Inhibitory Activity 3 (IC50 against DYRK3) (DYRK3)
1 | CC#C[C@@H]1[C@H](COC)NC(=O)N1c1nc2c3c(ccc2s1)OCC3 (single isomer, unassigned) [Example 74, cis-1-(7,8-dihydrobenzofuro[4,5-d]thiazol-2-yl)-4-(methoxymethyl)-5-(prop-1-yn-1-yl)imidazolidin-2-one] | 100 to 1000 | * * * | 100 to 1000 | – | – | –
2 | CC#C[C@@H]1[C@H](COC)NC(=O)N1c1nc2c3c(ccc2s1)OCC3 (single isomer, unassigned) [Example 75, cis-1-(7,8-dihydrobenzofuro[4,5-d]thiazol-2-yl)-4-(methoxymethyl)-5-(prop-1-yn-1-yl)imidazolidin-2-one] | ≥ 1000 | – | ≥ 1000 | 100 to 1000 | – | –
3 | CC#C[C@H]1[C@H](COC)NC(=O)N1c1nc2c3c(ccc2s1)OCC3 (single isomer, unassigned) [Example 76, trans-1-(7,8-dihydrobenzofuro[4,5-d]thiazol-2-yl)-4-(methoxymethyl)-5-(prop-1-yn-1-yl)imidazolidin-2-one] | ≥ 1000 | * * | ≥ 1000 | – | – | –
4 | CC#C[C@H]1[C@H](COC)NC(=O)N1c1nc2c3c(ccc2s1)OCC3 (single isomer, unassigned) [Example 77, trans-1-(7,8-dihydrobenzofuro[4,5-d]thiazol-2-yl)-4-(methoxymethyl)-5-(prop-1-yn-1-yl)imidazolidin-2-one] | ≥ 1000 | * * | ≥ 1000 | – | – | –
5 | CC#C[C@H]1[C@H](CF)NC(=O)N1c1nc2c3c(ccc2s1)OCC3 (single isomer, unassigned) [Example 78, trans-1-(7,8-dihydrobenzofuro[4,5-d]thiazol-2-yl)-4-(fluoromethyl)-5-(prop-1-yn-1-yl)imidazolidin-2-one] | 100 to 1000 | – | – | < 10 | * * | –
6 | CC#C[C@H]1[C@H](CF)NC(=O)N1c1nc2c3c(ccc2s1)OCC3 (single isomer, unassigned) [Example 79, trans-1-(7,8-dihydrobenzofuro[4,5-d]thiazol-2-yl)-4-(fluoromethyl)-5-(prop-1-yn-1-yl)imidazolidin-2-one] | ≥ 1000 | – | ≥ 1000 | 100 to 1000 | – | –
7 | CC#C[C@@H]1[C@H](C)NC(=O)N1c1nc2c3c(ccc2s1)OCO3 [Example 23, (4S,5R)-1-([1,3]dioxolo[4′,5′:5,6]benzo[1,2-d]thiazol-7-yl)-4-methyl-5-(prop-1-yn-1-yl)imidazolidin-2-one] | 100 to 1000 | * * * | 100 to 1000 | – | – | –
8 | CC#C[C@@H]1[C@H](C)NC(=O)N1c1nc2c3c(ccc2s1)OCCO3 [Example 56, (4S,5R)-1-(7,8-dihydro-[1,4]dioxino[2′,3′:5,6]benz[1,2-d]thiazol-2-yl)-4-methyl-5-(prop-1-yn-1-yl)imidazolidin-2-one] | 100 to 1000 | * * * | 100 to 1000 | – | – | –
9 | CC#C[C@@H]1[C@H](C)NC(=O)N1c1nc2c3c(ccc2s1)OCCC3 [Example 57, (4S,5R)-1-(8,9-dihydro-7H-chromeno[5,6-d]thiazol-2-yl)-4-methyl-5-(prop-1-yn-1-yl)imidazolidin-2-one] | 100 to 1000 | * * * | 100 to 1000 | – | – | –
10 | [2H]C1([2H])Oc2ccc3sc(N4C(=O)NC[C@H]4C#CC)nc3c2O1 [Example 62, (R)-1-([1,3]dioxolo[4′,5′:5,6]benz[1,2-d]thiazol-7-yl-2,2-d2)-5-(prop-1-yn-1-yl)imidazolidin-2-one] | – | * * * | 100 to 1000 | – | – | * *

Next, values leading:

Row | IC50 (DYRK3) [nM] | Inhibitory Activity 1a (IC50 against DYRK1A) (DYRK1A) | IC50 (DYRK2) [nM] | IC50 (DYRK1A) [nM] | Inhibitory Activity 2 (IC50 against DYRK2) (DYRK2) | Inhibitory Activity 3 (IC50 against DYRK3) (DYRK3) | SMILES
11 | 100 to 1000 | * * * | ≥ 1000 | – | – | – | CC#C[C@H]1[C@H](CC)NC(=O)N1c1nc2c3c(ccc2s1)OCC3 (single isomer, unassigned) [Example 71, trans-1-(7,8-dihydrobenzofuro[4,5-d]thiazol-2-yl)-4-ethyl-5-(prop-1-yn-1-yl)imidazolidin-2-one]
12 | ≥ 1000 | – | ≥ 1000 | 100 to 1000 | – | – | CC#C[C@H]1[C@H](CC)NC(=O)N1c1nc2c3c(ccc2s1)OCC3 (single isomer, unassigned) [Example 72, trans-1-(7,8-dihydrobenzofuro[4,5-d]thiazol-2-yl)-4-ethyl-5-(prop-1-yn-1-yl)imidazolidin-2-one]
13 | ≥ 1000 | – | ≥ 1000 | ≥ 1000 | – | – | CC#C[C@H]1[C@H](C)NC(=O)N1c1nc2c3c(ccc2s1)OCC3 [Example 4, (4S,5S)-1-(7,8-dihydrobenzofuro[4,5-d]thiazol-2-yl)-4-methyl-5-(prop-1-yn-1-yl)imidazolidin-2-one]
14 | 100 to 1000 | * * * | ≥ 1000 | – | – | – | CC#C[C@@H]1[C@@H](C)NC(=O)N1c1nc2c3c(ccc2s1)OCC3 [Example 16, (4R,5R)-1-(7,8-dihydrobenzofuro[4,5-d]thiazol-2-yl)-4-methyl-5-(prop-1-yn-1-yl)imidazolidin-2-one]
15 | ≥ 1000 | – | ≥ 1000 | 100 to 1000 | – | – | CC#C[C@H]1[C@@H](C)NC(=O)N1c1nc2c3c(ccc2s1)OCC3 [Example 17, (4R,5S)-1-(7,8-dihydrobenzofuro[4,5-d]thiazol-2-yl)-4-methyl-5-(prop-1-yn-1-yl)imidazolidin-2-one]
16 | – | * * * | 100 to 1000 | – | – | * * | CC#CC1C(CN)NC(=O)N1c1nc2c3c(ccc2s1)OCC3 (stereo not drawn) [Example 63, 4-(aminomethyl)-1-(7,8-dihydrobenzofuro[4,5-d]thiazol-2-yl)-5-(prop-1-yn-1-yl)imidazolidin-2-one]
17 | ≥ 1000 | – | ≥ 1000 | ≥ 1000 | – | – | CC#C[C@H]1[C@H](C(C)C)NC(=O)N1c1nc2c3c(ccc2s1)OCC3 [Example 67, (4S,5S)-1-(7,8-dihydrobenzofuro[4,5-d]thiazol-2-yl)-4-isopropyl-5-(prop-1-yn-1-yl)imidazolidin-2-one]
18 | 100 to 1000 | * * * | ≥ 1000 | – | – | – | CC#C[C@@H]1[C@H](C(C)C)NC(=O)N1c1nc2c3c(ccc2s1)OCC3 [Example 68, (4S,5R)-1-(7,8-dihydrobenzofuro[4,5-d]thiazol-2-yl)-4-isopropyl-5-(prop-1-yn-1-yl)imidazolidin-2-one]
19 | ≥ 1000 | – | ≥ 1000 | 100 to 1000 | – | – | CC#C[C@H]1[C@H]([C@@H](C)O)NC(=O)N1c1nc2c3c(ccc2s1)OCC3 [Example 81, (4R,5S)-1-(7,8-dihydrobenzofuro[4,5-d]thiazol-2-yl)-4-((R)-1-hydroxyethyl)-5-(prop-1-yn-1-yl)imidazolidin-2-one]
20 | – | * * * | 100 to 1000 | – | – | * * | CC#C[C@@H]1[C@H]([C@@H](C)O)NC(=O)N1c1nc2c3c(ccc2s1)OCC3 [Example 82, (4R,5R)-1-(7,8-dihydrobenzofuro[4,5-d]thiazol-2-yl)-4-((R)-1-hydroxyethyl)-5-(prop-1-yn-1-yl)imidazolidin-2-one]
21 | ≥ 1000 | – | ≥ 1000 | 10 to 100 | – | – | CC#C[C@H]1[C@H]([C@H](C)O)NC(=O)N1c1nc2c3c(ccc2s1)OCC3 [Example 83, (4R,5S)-1-(7,8-dihydrobenzofuro[4,5-d]thiazol-2-yl)-4-((S)-1-hydroxyethyl)-5-(prop-1-yn-1-yl)imidazolidin-2-one]
